Measured values from patent US4376773A, “10-Substituted 5-cyanomethylene-10,11-dihydro-dibenzo-[a,d]-cycloheptenes, their preparation, and therapeutic agents containing these compounds” (BASF Aktiengesellschaft, priority 1980, dated 1983).
Read-outs that look alike come from different tables or passages of the source.

What was measured:
[1] = system: tonic extensor reflex on the rabbit gastrocnemius; assay: Muscle-relaxing action: tonic extensor reflex; assay type: in vivo; conditions: for ED50: Oryctolagus cuniculus, rabbit, intravenous, dose reducing muscle activity to half, read-out: Muscle relaxation ED 50%; for Muscle relaxation R.A. (relative activity): clozapine = 1.0
Description: The measurement is based on quantifying the tonic extensor reflex on the rabbit gastrocnemius (Teschendorf et al., Arch. Pharmacol. exp. Path. 266 (1970), 462). The rabbit is fixed in a special apparatus which permits bending the paw at the talocalcanean joint in a defined and reproducible manner. As a result of this bending, a tonic extensor reflex is triggered in the […]. The electrical activity of the muscle during contraction is registered and the individual pulses are counted. The extension (duration 5 s) is repeated at intervals of one minute. After a constant number of pulses has been reached (constituting the control value), the test compound is administered intravenously. The number of pulses after administration is related to the previous value. For each dose investigated, 4-6 animals are used. The ED 50% is the dose which reduces the muscle activity to half, based on the initial value.

Acute toxicity = conditions: mouse, in vivo, ip; mice, intraperitoneal; read-out: Toxicity LD 50
Description: Groups of 5-10 female NMRI mice are given the compounds intraperitoneally. The LD 50 is determined as the dose after which 50% of the treated animals die.

[2] = system: methamphetamine-antagonism (sniffing movements); assay: Antimethamphetamine action: methamphetamine-induced sniffing movements; assay type: in vivo, rat; conditions: for ED50: ip, 0.5 h, rat, intraperitoneal, 30 min before methamphetamine 2.5 mg/kg i.v., read-out: Antimethamphetamine action ED 50%; for Antimethamphetamine action R.A. (relative activity): clozapine = 1.00
Description: Methamphetamine (2.5 mg/kg administered intravenously) regularly causes the following symptoms in rats: motor restlessness, searching and sniffing movements, bristling fur and tremor (Janssen et al., Arzneim.-Forsch./DrugRes. 13 (1963), 205; Randrug et al., Psychopharmacologia 11 (1967), 300). The test substances are administered intraperitoneally, 30 minutes before the methamphetamine. The criterion of whether a compound has an effect is whether the sniffing movements remain absent over 5 minutes' observation after the injection of methamphetamine. That dose is determined as the mean inhibitory dose (ED 50%) by means of Probit analysis which prevents the symptom in half the number of animals. Number of animals examined per dose: 10.

death from physostigmine = assay: Anticholinergic action: protection against physostigmine lethality; assay type: in vivo, mouse (female NMRI); conditions: mice, oral, 30 min before physostigmine 0.825 mg/kg s.c.; dose protecting 50% against death
Description: Groups of 10 female NMRI mice are given physostigmine subcutaneously, at a lethal dose (0.825 mg/kg). The test substances are administered orally 30 minutes before the administration of physostigmine.
The ED 50% is determined as the dose of compound which protects 50% of the animals against death from physostigmine.

[3] = system: orientation hypermotility; assay: Sedative action: orientation hypermotility in mice; assay type: in vivo, mouse (female NMRI); conditions: for ED50: Mus musculus, 0.5 h, mice, oral, 30 min after administration, 50% decrease in orientation hypermotility vs placebo, read-out: Sedation ED 50%; for Sedation R.A. (relative activity): clozapine = 1.0
Description: 4-8 groups of 3 female NMRI mice are given the compound orally. The orientation hypermotility induced by a new environment is determined photoelectrically, 30 minutes after administration of the compound, for a period of 30 minutes. The ED50 is the dose which produces a decrease in orientation hypermotility by 50%, compared to control animals treated with placebo.

[4] = system: apomorphine-antagonism (mandibular movements); assay: Antiapomorphine action: apomorphine-triggered mandibular movements; assay type: in vivo, rat (female Sprague-Dawley); conditions: for ED50: 1.5 h, read-out: Antiapomorphine action ED 50%; for Antiapomorphine action R.A. (relative activity): clozapine = 1.00
Description: The test substances are administered orally 90 minutes before the apomorphine.

[5] = rat, oral, 90 min before apomorphine 1.5 mg/kg s.c.

Row | Compound | ED50 [1] | Muscle relaxation R.A. (relative activity) [1] | LD50 (Acute toxicity) | ED50 [2] | Antimethamphetamine action R.A. (relative activity) [2] | ED50 protecting against physostigmine lethality (death from physostigmine) | ED50 [3] | Sedation R.A. (relative activity) [3] | muscle-relaxing action compared with comparative substances ([1]; in words, vs clozapine and perlapine) | ED50 [4, 5] | Antiapomorphine action R.A. (relative activity) [4] | ED50 ([4]; Rattus norvegicus, po)
1 | CN1CCN(C2Cc3ccccc3C(=CC#N)c3ccccc32)CC1 (mixture of isomers) [Example 1, cis,trans-5-Cyanomethylene-10-(4-methyl-piperazin-1-yl)-10,11-dihydro-dibenzo[a,d]-cycloheptene. 1/2 H2 O] | 0.1 mg/kg | 0.46 | > 100 mg/kg | 5.4 mg/kg | 6.85 | > 46.4 | 5.6 mg/kg | 0.85 | – | – | – | –
2 | CN1CCN(C2Cc3cc(Cl)ccc3C(=CC#N)c3ccccc32)CC1 (mixture of isomers) [Example 4, cis,trans-2-Chloro-5-cyanomethylene-10-(4-methylpiperazin-1-yl)-10,11-dihydro-dibenzo[a,d]-cycloheptene] | 0.02 mg/kg | 2.30 | – | 4.6 mg/kg | 8.04 | – | 5.5 mg/kg | 0.86 | markedly surpasses those of the comparative substances | – | – | –
3 | CCN1CCN(C2Cc3ccccc3C(=CC#N)c3ccccc32)CC1 (mixture of isomers) [Example 5, cis,trans-5-Cyanomethylene-10-(4-ethyl-piperazin-1-yl)-10,11-dihydro-dibenzo[a,d]-cycloheptene. 1/2 H2 O] | 0.1 mg/kg | 0.46 | > 100 mg/kg | 13 mg/kg | 2.85 | > 46.4 | 6.7 mg/kg | 0.71 | – | – | – | –
4 | N#CC=C1c2ccccc2CC(N2CCN(CCO)CC2)c2ccccc21 (mixture of isomers) [Example 7, cis,trans-5-Cyanomethylene-10-(N-β-hydroxyethyl-piperazin-1-yl)-10,11-dihydro-dibenzo[a,d]-cycloheptene. 1/2 H2 O] | – | – | > 100 mg/kg | 30 mg/kg | 1.23 | > 100 | 10 mg/kg | 0.47 | – | – | – | –
5 | C[N+]1([O-])CCN(C2Cc3ccccc3C(=CC#N)c3ccccc32)CC1 (mixture of isomers) [Example 8, cis, trans-5-Cyanomethylene-10-(4-methyl-4-oxy-piperazin-1-yl)-10,11-dihydro-dibenzo[a,d]-cycloheptene. 1/2 H2 O] | – | – | > 100 mg/kg | 39 mg/kg | 0.95 | > 100 | 15.2 mg/kg | 0.31 | – | 7 mg/kg | 1.14 | –
6 | CN1CCN(C2=Nc3cc(Cl)ccc3Nc3ccccc32)CC1 [Clozapine, clozapine, reference compound] | 0.046 mg/kg | 1.0 | – | 37 mg/kg | 1.00 | – | – | 1.0 | – | 8 mg/kg | 1.00 | –
7 | CN1CCN(C2=Nc3ccccc3Cc3ccccc32)CC1 [Perlapine, perlapine, reference compound] | 0.1 mg/kg | 0.46 | – | 31 mg/kg | 1.19 | – | 2.01 mg/kg | 2.36 | – | – | 0.37 | 21.5 mg/kg
